In ChEMBL document CHEMBL1201862, “PubChem BioAssay data set” (2004):
Active and inactive are the calls of the source.

Tests used:
[1] = molecular target: DNA dC->dU-editing enzyme APOBEC-3G (Homo sapiens, UniProt Q9HC16); assay: Dose Response confirmation of small molecule APOBEC3G DNA Deaminase Inhibitors via a fluorescence-based single-stranded DNA deaminase assay. [Related pubchem assays (depositor defined):AID493012, AID493028]; assay type: functional
[2] = molecular target: DNA dC->dU-editing enzyme APOBEC-3A (Homo sapiens, UniProt P31941); assay: A3A deaminase inhibition for selectivity – biochemical, dose response (AID 504722); assay type: functional
DNA dC->dU-editing enzyme APOBEC-3A, sequence (P31941 whole entry): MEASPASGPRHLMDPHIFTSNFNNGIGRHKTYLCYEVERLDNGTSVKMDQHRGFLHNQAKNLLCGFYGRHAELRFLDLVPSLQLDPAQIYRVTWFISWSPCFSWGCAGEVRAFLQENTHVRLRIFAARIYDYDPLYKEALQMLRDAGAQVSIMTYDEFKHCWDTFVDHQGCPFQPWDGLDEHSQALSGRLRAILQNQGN

Cytochrome P450 2D6 = Cytochrome P450 2D6 (Homo sapiens, UniProt P10635);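 further: CYP2D6 member of a cytochrome P450 panel assay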
Cytochrome P450 3A4 [3] = molecular target: T1, Cytochrome P450 3A4 (Homo sapiens, UniProt P08684);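 further: CYP3A4 tested as one member of a cytochrome P450 panel screen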
T1 sequence (P08684 whole entry): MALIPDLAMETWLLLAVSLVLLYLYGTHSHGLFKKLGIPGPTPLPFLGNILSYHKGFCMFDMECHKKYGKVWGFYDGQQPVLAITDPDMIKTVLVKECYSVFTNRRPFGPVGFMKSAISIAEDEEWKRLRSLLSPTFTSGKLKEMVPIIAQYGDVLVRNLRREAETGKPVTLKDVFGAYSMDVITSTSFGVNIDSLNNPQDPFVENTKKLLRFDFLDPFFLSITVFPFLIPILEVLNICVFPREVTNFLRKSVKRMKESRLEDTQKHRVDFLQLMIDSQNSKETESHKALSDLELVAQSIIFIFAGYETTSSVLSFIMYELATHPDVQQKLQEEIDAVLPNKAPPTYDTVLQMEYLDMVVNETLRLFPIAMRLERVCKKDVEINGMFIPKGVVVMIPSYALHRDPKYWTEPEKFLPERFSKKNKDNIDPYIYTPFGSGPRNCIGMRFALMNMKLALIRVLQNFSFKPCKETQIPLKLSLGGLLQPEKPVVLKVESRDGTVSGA

[4] = DRD fibroblast viability loss – cell-based, non-viral oncogenic, luminescence, dose response (AID 1934); assay type: functional; details: Homo sapiens
BJ [5] = assay: BJ-TERT-LT-ST fibroblast viability loss – cell-based, RAS-independent, luminescence, dose response (AID 1935); assay type: functional; details: Homo sapiens;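 further: BJ fibroblasts immortalized with TERT plus LT and ST oncogenes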
Vero [6] = assay: cells; assay type: functional; details: Chlorocebus sabaeus
Vero [7] = assay: cells; assay type: functional, cell-based; details: Chlorocebus sabaeus
BJ [8] = assay: cells; assay type: functional, cell-based; details: Homo sapiens
BJ [9] = assay: BJ-TERT fibroblast viability loss – cell-based, RAS-independent, luminescence, dose response (AID 1933); assay type: functional; details: Homo sapiens
[10] = molecular target: T2, RNA-binding protein pos-1 (Caenorhabditis elegans, UniProt G5EF15); assay: disruptors of C. elegans POS-1 RNA interaction – biochemical, fluorescence polarization, dose response (AID 1964);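 further: purified POS-1 fused to maltose binding protein made in E. coli; potency of compounds blocking POS-1 binding to fluorescent RNA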
T2 sequence (G5EF15 whole entry): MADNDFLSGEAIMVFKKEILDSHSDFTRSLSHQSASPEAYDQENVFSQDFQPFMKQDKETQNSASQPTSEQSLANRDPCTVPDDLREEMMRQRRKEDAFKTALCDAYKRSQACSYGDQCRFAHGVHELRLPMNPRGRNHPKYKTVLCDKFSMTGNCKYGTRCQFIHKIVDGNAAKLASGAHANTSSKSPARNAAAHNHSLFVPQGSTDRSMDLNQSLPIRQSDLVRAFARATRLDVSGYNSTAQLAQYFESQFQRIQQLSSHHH

[11] = molecular target: T3, Zinc finger protein mex-5 (Caenorhabditis elegans, UniProt Q9XUB2); assay: potency of MEX-5 RNA-binding blockers – biochemical, C. elegans, fluorescence polarization, dose response (AID 1960)
T3 sequence (Q9XUB2 whole entry): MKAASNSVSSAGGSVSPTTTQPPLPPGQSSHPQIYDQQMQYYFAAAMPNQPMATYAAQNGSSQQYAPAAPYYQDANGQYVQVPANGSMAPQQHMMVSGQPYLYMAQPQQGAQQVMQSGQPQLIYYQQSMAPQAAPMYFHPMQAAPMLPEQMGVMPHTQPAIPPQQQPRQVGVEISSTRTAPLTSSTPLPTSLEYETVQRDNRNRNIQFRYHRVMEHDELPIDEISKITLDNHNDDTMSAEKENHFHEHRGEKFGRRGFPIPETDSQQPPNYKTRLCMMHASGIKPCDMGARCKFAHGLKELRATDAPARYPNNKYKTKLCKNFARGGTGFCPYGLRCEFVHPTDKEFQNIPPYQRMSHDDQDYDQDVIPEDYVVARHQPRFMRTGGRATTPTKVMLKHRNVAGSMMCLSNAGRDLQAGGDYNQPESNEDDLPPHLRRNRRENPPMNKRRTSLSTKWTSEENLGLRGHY

[12] = molecular target: Eukaryotic translation initiation factor 4H (Homo sapiens, UniProt Q15056); assay: inhibitors of translation initiation factor eIF4H – SAR follow-up (AID 435011); assay type: functional
[13] = molecular target: Polyadenylate-binding protein 1 (Homo sapiens, UniProt P11940); assay: PABP inhibition in translation initiation, SAR follow-up (AID 435018); assay type: functional
Polyadenylate-binding protein 1, sequence (P11940 whole entry): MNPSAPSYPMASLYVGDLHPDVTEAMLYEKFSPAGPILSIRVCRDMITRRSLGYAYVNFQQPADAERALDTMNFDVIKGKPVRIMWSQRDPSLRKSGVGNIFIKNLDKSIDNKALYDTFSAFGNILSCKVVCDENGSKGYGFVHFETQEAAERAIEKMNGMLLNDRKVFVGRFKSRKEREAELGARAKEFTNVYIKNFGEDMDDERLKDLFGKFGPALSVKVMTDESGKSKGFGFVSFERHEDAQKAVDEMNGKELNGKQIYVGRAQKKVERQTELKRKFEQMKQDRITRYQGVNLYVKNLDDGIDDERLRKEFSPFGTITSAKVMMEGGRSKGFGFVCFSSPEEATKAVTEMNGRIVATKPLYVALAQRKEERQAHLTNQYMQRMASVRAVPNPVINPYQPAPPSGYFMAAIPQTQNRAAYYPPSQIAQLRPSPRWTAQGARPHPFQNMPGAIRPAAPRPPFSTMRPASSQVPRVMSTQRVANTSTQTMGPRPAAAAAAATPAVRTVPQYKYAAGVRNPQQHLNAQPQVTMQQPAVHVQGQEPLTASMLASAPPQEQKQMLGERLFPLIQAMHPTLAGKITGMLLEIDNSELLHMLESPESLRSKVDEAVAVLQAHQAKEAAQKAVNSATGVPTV

Cytochrome P450 3A4 [14] = molecular target: T1, Cytochrome P450 3A4; remark: listed apart in the source
Cytochrome P450 2C19 = Cytochrome P450 2C19 (Homo sapiens, UniProt P33261); assay: Cytochrome panel assay with activity outcomes. Panel member name: p450-cyp2c19 Compounds with AC50 equal or less than 10 uM are considered active; assay type: functional
[15] = molecular target: T4, E3 ubiquitin-protein ligase XIAP (Homo sapiens, UniProt P98170); assay: Counter Screen using XIAP-Bir3 for Chemical Antagonists of Bir1/2 domains of IAP-family anti-apoptotic proteins. [Related pubchem assays (depositor defined):AID1018, AID1449, AID1514, AID1638, AID1749, AID1750, AID488957, AID488963]
T4 sequence (P98170 whole entry): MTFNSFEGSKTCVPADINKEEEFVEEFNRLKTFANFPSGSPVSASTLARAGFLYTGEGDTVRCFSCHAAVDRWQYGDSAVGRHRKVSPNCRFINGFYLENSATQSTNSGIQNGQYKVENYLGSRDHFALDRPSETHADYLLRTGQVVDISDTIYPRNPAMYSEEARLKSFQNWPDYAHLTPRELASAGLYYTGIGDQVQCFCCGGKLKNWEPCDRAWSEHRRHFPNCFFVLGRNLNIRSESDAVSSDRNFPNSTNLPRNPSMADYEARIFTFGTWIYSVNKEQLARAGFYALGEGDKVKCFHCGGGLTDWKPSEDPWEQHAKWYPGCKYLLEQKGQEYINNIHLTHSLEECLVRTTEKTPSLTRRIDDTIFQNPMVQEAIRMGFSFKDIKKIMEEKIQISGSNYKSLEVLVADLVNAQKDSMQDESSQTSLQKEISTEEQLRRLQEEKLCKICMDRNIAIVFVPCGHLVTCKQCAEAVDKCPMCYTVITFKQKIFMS

[16] = molecular target: T4, E3 ubiquitin-protein ligase XIAP; assay: small molecules displacing peptide from XIAP – biochemical, IAP family, fluorescence polarization (AID 1018); assay type: functional
[17] = viability of uninfected HEp-2 cells – cell-based, HTS, cytotoxicity control for RSV inhibitor project, dose response (AID 2410); assay type: functional; details: human respiratory syncytial virus
HEK293 = assay: EBV LMP1 TES2 canonical NF-kB signalling blockers – cell-based, HEK293, luciferase, cherry-pick, dose response (AID 588343); assay type: functional; details: Homo sapiens
Cytochrome P450 1A2 = molecular target: T5, Cytochrome P450 1A2 (Homo sapiens, UniProt P05177);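 further: PubChem cytochrome P450 panel assay, CYP1A2 panel member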
T5 sequence (P05177 whole entry): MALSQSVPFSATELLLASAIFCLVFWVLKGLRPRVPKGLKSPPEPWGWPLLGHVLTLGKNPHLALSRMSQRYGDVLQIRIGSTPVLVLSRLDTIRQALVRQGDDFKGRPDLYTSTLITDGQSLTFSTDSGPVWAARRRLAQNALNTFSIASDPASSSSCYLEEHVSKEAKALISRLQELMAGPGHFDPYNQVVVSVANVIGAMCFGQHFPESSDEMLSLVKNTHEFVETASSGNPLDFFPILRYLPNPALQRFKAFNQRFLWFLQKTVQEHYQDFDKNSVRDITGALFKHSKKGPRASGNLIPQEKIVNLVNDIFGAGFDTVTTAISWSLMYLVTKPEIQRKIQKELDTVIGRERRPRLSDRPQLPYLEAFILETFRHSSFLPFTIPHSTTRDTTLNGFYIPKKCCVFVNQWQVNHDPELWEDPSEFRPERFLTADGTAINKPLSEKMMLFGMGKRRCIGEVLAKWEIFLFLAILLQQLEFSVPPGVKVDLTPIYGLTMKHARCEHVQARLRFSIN

[18] = molecular target: Voltage-dependent T-type calcium channel subunit alpha-1H (Homo sapiens, UniProt O95180); assay type: functional;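 further: channel activity triggered by adding a high calcium stimulation buffer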
Voltage-dependent T-type calcium channel subunit alpha-1H, sequence (O95180 whole entry): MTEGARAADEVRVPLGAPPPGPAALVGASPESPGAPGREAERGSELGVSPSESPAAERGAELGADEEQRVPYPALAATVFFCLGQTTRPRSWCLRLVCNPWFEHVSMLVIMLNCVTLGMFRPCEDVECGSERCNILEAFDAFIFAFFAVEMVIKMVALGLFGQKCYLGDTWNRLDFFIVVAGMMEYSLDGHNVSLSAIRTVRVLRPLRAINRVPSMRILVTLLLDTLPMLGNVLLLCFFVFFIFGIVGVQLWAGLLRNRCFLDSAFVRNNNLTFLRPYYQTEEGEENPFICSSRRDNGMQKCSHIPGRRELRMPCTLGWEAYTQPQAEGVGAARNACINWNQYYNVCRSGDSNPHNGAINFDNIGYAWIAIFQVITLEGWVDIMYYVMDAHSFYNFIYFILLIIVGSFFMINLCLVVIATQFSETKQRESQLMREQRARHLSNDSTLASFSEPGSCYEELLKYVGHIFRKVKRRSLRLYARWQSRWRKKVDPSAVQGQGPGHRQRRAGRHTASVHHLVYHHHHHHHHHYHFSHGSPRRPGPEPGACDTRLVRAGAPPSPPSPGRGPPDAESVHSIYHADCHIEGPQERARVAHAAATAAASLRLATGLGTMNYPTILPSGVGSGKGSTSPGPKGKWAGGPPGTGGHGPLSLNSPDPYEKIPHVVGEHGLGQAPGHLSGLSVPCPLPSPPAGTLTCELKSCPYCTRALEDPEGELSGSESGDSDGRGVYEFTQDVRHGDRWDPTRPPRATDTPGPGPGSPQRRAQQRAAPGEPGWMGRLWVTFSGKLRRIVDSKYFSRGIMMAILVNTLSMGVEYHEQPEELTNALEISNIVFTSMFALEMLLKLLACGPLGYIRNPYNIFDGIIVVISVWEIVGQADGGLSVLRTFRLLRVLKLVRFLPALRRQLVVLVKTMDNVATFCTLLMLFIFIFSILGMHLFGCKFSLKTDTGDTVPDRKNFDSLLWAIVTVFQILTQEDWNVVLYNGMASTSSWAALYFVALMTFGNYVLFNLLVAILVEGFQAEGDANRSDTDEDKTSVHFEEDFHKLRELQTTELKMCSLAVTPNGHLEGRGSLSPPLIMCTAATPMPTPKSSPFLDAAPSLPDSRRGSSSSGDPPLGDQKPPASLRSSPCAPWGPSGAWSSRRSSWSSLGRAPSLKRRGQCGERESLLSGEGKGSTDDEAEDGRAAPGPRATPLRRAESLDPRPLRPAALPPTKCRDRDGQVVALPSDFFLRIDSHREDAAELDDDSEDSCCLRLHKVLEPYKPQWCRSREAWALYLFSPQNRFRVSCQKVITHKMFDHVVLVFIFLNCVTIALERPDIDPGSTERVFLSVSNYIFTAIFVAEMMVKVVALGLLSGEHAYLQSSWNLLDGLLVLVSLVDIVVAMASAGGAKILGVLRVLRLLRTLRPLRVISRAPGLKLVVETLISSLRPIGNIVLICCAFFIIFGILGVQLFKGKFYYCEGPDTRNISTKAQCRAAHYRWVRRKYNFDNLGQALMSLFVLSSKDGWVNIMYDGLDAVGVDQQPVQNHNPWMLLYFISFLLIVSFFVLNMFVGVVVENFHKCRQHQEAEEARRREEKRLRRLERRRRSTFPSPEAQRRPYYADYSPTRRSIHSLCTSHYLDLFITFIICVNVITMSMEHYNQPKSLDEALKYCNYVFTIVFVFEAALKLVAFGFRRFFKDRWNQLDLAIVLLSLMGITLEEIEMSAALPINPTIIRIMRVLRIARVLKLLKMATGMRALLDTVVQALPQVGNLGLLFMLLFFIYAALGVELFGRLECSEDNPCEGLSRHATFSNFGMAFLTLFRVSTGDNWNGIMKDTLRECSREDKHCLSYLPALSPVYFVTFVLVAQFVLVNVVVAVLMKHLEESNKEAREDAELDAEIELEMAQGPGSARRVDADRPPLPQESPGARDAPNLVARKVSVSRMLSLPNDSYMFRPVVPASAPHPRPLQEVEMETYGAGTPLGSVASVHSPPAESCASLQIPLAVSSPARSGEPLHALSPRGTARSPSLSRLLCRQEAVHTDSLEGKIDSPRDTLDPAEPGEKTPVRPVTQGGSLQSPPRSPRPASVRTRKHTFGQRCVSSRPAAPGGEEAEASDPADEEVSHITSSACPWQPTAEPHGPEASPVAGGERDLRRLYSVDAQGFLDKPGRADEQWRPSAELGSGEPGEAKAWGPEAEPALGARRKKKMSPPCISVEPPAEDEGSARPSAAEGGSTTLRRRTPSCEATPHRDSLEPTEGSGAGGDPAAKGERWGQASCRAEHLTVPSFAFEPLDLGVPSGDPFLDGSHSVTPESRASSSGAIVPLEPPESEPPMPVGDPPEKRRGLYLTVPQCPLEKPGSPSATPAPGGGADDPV

Cytochrome P450 2C9 = Cytochrome P450 2C9 (Homo sapiens, UniProt P11712)
[19] = molecular target: T6, Calpain-2 catalytic subunit (Sus scrofa, UniProt P43367); assay: m-calpain protease blockers, concentration series – biochemical, fluorogenic peptide substrate, dose response (AID 1420); assay type: functional
T6 sequence (P43367 whole entry): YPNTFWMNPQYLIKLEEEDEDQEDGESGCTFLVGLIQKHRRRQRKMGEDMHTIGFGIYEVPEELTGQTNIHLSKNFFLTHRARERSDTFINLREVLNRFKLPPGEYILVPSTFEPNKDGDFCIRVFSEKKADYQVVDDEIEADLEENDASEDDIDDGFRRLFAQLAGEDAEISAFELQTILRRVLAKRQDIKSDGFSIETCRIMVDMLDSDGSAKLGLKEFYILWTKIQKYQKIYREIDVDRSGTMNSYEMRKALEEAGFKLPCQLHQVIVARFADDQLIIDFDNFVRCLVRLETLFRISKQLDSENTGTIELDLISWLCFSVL

[20] = molecular target: T7, Tyrosine-protein phosphatase non-receptor type 7 (Homo sapiens, UniProt P35236); assay: inhibition of hematopoietic tyrosine phosphatase HePTP – biochemical, set 2, SAR follow-up (AID 449736); assay type: functional
T7 sequence (P35236 whole entry): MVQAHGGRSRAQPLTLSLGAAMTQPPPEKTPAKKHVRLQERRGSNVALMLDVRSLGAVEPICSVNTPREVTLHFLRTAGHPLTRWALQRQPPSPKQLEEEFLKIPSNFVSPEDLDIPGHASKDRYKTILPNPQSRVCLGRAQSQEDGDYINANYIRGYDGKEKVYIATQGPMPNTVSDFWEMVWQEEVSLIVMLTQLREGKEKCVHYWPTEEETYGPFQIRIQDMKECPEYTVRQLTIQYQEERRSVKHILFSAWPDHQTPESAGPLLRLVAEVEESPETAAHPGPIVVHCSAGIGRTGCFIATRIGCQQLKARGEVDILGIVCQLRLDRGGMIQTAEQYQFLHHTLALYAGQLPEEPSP

[21] = molecular target: T8, Corticotropin-releasing factor receptor 2/Corticotropin-releasing factor-binding protein (Homo sapiens, UniProt P24387+Q13324); assay: activators of CRF receptor 2 with binding protein – uHTS hits, confirmation (AID 602473); assay type: functional; details: read-out: EC50_Mean
T8 sequence (Q13324 whole entry): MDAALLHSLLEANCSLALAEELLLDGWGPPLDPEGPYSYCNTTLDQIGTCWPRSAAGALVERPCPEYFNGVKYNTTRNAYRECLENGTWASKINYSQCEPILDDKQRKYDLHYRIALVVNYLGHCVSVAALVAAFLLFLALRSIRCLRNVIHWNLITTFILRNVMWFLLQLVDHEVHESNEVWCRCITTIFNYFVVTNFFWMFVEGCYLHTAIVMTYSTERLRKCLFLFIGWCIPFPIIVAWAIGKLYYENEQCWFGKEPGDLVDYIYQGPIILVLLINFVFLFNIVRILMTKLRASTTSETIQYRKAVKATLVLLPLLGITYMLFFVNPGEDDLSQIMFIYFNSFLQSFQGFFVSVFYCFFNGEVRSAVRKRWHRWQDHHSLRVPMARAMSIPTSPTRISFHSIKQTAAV
T8 sequence (P24387 whole entry): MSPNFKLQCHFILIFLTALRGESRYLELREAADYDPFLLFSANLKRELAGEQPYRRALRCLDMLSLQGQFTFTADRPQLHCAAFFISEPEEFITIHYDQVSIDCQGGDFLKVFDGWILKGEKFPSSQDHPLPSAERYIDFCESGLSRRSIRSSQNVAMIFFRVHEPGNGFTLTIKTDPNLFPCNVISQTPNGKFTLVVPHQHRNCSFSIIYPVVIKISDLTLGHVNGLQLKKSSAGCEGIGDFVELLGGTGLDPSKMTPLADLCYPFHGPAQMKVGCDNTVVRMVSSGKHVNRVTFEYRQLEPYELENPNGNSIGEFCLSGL

DNA dC->dU-editing enzyme APOBEC-3G, sequence (Q9HC16 whole entry): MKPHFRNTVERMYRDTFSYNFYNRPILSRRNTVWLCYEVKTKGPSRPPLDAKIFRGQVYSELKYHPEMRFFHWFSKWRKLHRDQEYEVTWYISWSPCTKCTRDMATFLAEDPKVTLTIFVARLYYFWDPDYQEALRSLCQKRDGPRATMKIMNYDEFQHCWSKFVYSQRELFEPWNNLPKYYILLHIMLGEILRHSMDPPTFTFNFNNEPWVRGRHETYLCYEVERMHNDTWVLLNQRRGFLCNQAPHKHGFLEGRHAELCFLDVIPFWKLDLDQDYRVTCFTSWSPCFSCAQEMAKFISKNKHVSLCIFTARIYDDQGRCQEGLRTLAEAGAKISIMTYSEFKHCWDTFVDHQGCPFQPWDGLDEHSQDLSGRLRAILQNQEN

C=CCn1c(S)nnc1-c1sc2nc(C)cc(C)c2c1N
IC50 [1]: 3.28 µM (active)
IC50 [2]: > 100 µM (inactive)

CCCCn1c(S)nnc1-c1ccc([N+](=O)[O-])cc1
IC50 [1]: 3.5 µM (active)
IC50 [2]: > 100 µM (inactive)

Cn1c(=O)n(C)c2cc([N+](=O)[O-])c(N3CCN(C(=O)c4ccccc4Cl)CC3)cc21
AC50 (Cytochrome P450 2D6): 0.0355 µM (inconclusive)
AC50 (Cytochrome P450 3A4 [3]): inconclusive

Cc1ccc(N(Cc2cc(O)nc3ccccc23)C(=O)CCl)cc1
EC50 [4]: 4.97 µM (inconclusive)
EC50 (BJ [5]): 8.14 µM (inconclusive)
CC50 (Vero [6]): 6.57 µM (active)
IC50 (Vero [7]): > 25 µM (active)
EC50 (BJ [8]): 8.7 µM (active)
EC50 (BJ [9]): 1.19 µM (inconclusive)

CC(C)(C)c1ccc(C(=O)Nc2cccc3ncccc23)cc1
EC50 [10]: 8.65 µM (active)
EC50 [11]: 5.39 µM (active)
IC50 [12]: 1.14 µM (active)
IC50 [13]: 1.32 µM (active)

Clc1ccc(COn2c(-c3ccccc3)nc3ccccc32)cc1
AC50 (Cytochrome P450 3A4 [3]): inconclusive

Cc1nnc(S)n1/N=C/c1ccc(Br)o1
AC50 (Cytochrome P450 3A4 [14]): 25.1 µM (inconclusive)
AC50 (Cytochrome P450 2C19): inconclusive
IC50 [1]: 6.93 µM (active)
IC50 [2]: > 100 µM (inactive)

Sc1nc(-c2ccccc2)cn1/N=C/c1ccncc1
IC50 [1]: 2.93 µM (active)
IC50 [2]: > 100 µM (inactive)

CCOC(=O)N/N=C/c1ccc(Oc2ccccc2)cc1
IC50 [15]: > 100 µM (inactive)
IC50 [16]: > 100 µM (not active)

C#CCn1c(S(=O)(=O)Cc2ccc(F)cc2)nc(-c2ccccc2)c1-c1ccccc1
CC50 [17]: 3.47 µM (active)
IC50 (cells): 4.97 µM (active)
AC50 (HEK293): 21.7 µM (active)
CC50 (Vero [6]): 22.2 µM (active)
IC50 (Vero [7]): 3.94 µM (active)

COc1ccccc1N=C1SC(C(=O)Nc2ccccc2)CC(=O)N1C (configuration not stated)
IC50 [12]: > 100 µM (inactive)
IC50 [13]: > 100 µM (inactive)

O=C(COc1ccc(C=NNC(=O)c2ccccc2O)cc1)Nc1ccccc1
IC50 [12]: > 100 µM (inactive)
IC50 [13]: > 100 µM (inactive)

O=c1[nH]c2ccccc2n1CCCN1CCN(C(c2ccccc2)c2ccccc2)CC1 [OXATOMIDE]
AC50 (Cytochrome P450 1A2): 25.1 µM (inconclusive)
EC50 [18]: 5.15 µM (active)
AC50 (Cytochrome P450 2C9): 7.94 µM (inconclusive)
AC50 (Cytochrome P450 3A4 [3]): inconclusive

OCC1(CCc2ccccc2)CCN(Cc2ccc(OC(F)F)cc2)CC1
IC50 [15]: > 100 µM (inactive)
IC50 [16]: > 100 µM (not active)

CCCCSc1nnc2c(n1)OC(C(=O)c1ccccc1)Nc1ccccc1-2 (configuration not stated)
IC50 [19]: > 50 µM (not active)
IC50 [15]: > 100 µM (inactive)
IC50 [16]: > 50 µM (not active)

Nc1c(C(=O)N2CCOCC2)sc(=S)n1-c1ccc(F)c(Cl)c1
IC50 [20]: > 100 µM (inactive)

CCn1c(CCNC(=O)c2ccc(OC)cc2)nnc1SCc1ccc(Cl)c(Cl)c1
IC50 [15]: > 100 µM (inactive)
IC50 [16]: > 100 µM (not active)
EC50 [21]: > 53 µM (inactive)
